# Results published in patent US20240108623A1, “METHODS OF TREATING CANCER WITH POZIOTINIB” (BOARD OF REGENTS, THE UNIVERSITY OF TEXAS SYSTEM, priority 2021, published 2024).
# How the values were obtained:
# Assay in all cases: Ba/F3 cell drug screening, Cell Titer Glo
# Assay type in all cases: cell-based
# EGFR L747S = biological target: T1, EGFR L747S (Homo sapiens, UniProt P00533, L747S); details: Ba/F3 cells expressing EGFR L747S; 72 hours
# T1 construct: expressed in transfected cells; host or cells: Ba/F3 (retroviral transduction, pBabe-Puro based vectors)
# How it was run: (§1)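 72 h viability, CellTiter-Glo luminescence; EGFR-mutant Ba/F3 (IL-3-independent, 1 ng/ml EGF), 7-point TKI dose vs DMSO, technical triplicate, 2–3 biological replicates. Normalized to DMSO; IC50 by variable-slope nonlinear regression at 50% inhibition.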
# EGFR L718Q T790M = biological target: T2, EGFR L718Q T790M (Homo sapiens, UniProt P00533, L718Q/T790M); details: Ba/F3 cells expressing EGFR L718Q T790M; 72 hours
# T2 construct: expressed in transfected cells; host or cells: Ba/F3 (retroviral transduction, pBabe-Puro based vectors)
# How it was run: as §1
# EGFR S768dupSVD V769M = biological target: T3, EGFR S768dupSVD V769M (Homo sapiens, UniProt P00533, INS768MDS/V769M); details: Ba/F3 cells expressing EGFR S768dupSVD V769M; 72 hours
# T3 construct: expressed in transfected cells; host or cells: Ba/F3 (retroviral, pBabe-Puro based vector; created by GeneScript from EGFR S768dupSVD, c.2305G > A)
# How it was run: as §1
# EGFR R776H = biological target: T4, EGFR R776H (Homo sapiens, UniProt P00533, R776H); details: Ba/F3 cells expressing EGFR R776H; 72 hours
# T4 construct: host or cells: Ba/F3 (retroviral transduction, pBabe-Puro based vectors)
# How it was run: as §1
# EGFR S811F = biological target: T5, EGFR S811F (Homo sapiens, UniProt P00533, S811F); details: Ba/F3 cells expressing EGFR S811F; 72 hours
# T5 construct: expressed in transfected cells; host or cells: Ba/F3 (retroviral, pBabe-Puro based vector; created by GeneScript from EGFR WT)
# How it was run: as §1
# EGFR G719A = biological target: T6, EGFR G719A (Homo sapiens, UniProt P00533, G719A); details: Ba/F3 cells expressing EGFR G719A; 72 hours
# T6 construct: expressed in transfected cells; host or cells: Ba/F3 (retroviral transduction, pBabe-Puro based vectors)
# How it was run: as §1
# EGFR L833V = biological target: T7, EGFR L833V (Homo sapiens, UniProt P00533, L833V); details: Ba/F3 cells expressing EGFR L833V; 72 hours
# T7 construct: expressed in transfected cells; host or cells: Ba/F3 (retroviral, pBabe-Puro based vector)
# How it was run: as §1
# EGFR S768I = biological target: T8, EGFR S768I (Homo sapiens, UniProt P00533, S768I); details: Ba/F3 cells expressing EGFR S768I; 72 hours
# T8 construct: expressed in transfected cells; host or cells: Ba/F3 (retroviral transduction, pBabe-Puro based vectors)
# How it was run: as §1
# EGFR G719A T790M = biological target: T9, EGFR G719A T790M (Homo sapiens, UniProt P00533, G719A/T790M); details: Ba/F3 cells expressing EGFR G719A T790M; 72 hours
# T9 construct: expressed in transfected cells; host or cells: Ba/F3 (retroviral transduction, pBabe-Puro based vectors)
# How it was run: as §1
# EGFR Ex19del T790M C797S = biological target: T10, EGFR Ex19del T790M C797S (Homo sapiens, UniProt P00533, C797S/DEL746-750/T790M); details: Ba/F3 cells expressing EGFR Ex19del T790M C797S; 72 hours
# T10 construct: expressed in transfected cells; host or cells: Ba/F3 (retroviral transduction, pBabe-Puro based vectors)
# How it was run: as §1
# EGFR L861R = biological target: T11, EGFR L861R (Homo sapiens, UniProt P00533, L861R); details: Ba/F3 cells expressing EGFR L861R; 72 hours
# T11 construct: expressed in transfected cells; host or cells: Ba/F3 (retroviral, pBabe-Puro based vector; created by GeneScript from EGFR WT)
# How it was run: as §1
# [1] = biological target: T12, EGFR L747_K754del insATSPE (Homo sapiens, UniProt P00533, DEL747-749/K754E); details: Ba/F3 cells expressing EGFR L747_K754del insATSPE; 72 hours
# T12 construct: expressed in transfected cells; host or cells: Ba/F3 (retroviral, pBabe-Puro based vector)
# How it was run: as §1
# EGFR L858R/T790M/L718Q = biological target: T13, EGFR L858R/T790M/L718Q (Homo sapiens, UniProt P00533, L718Q/L858R/T790M); details: Ba/F3 cells expressing EGFR L858R/T790M/L718Q; 72 hours
# T13 construct: expressed in transfected cells; host or cells: Ba/F3 (retroviral transduction, pBabe-Puro based vectors)
# How it was run: as §1
# EGFR L858R T790M L718V = biological target: T14, EGFR L858R T790M L718V (Homo sapiens, UniProt P00533, L718V/L858R/T790M); details: Ba/F3 cells expressing EGFR L858R T790M L718V; 72 hours
# T14 construct: expressed in transfected cells; host or cells: Ba/F3 (retroviral transduction, pBabe-Puro based vectors)
# How it was run: as §1
# EGFR Ex19del L718V = biological target: T15, EGFR Ex19del L718V (Homo sapiens, UniProt P00533, DEL746-750/L718V); details: Ba/F3 cells expressing EGFR Ex19del L718V; 72 hours
# T15 construct: expressed in transfected cells; host or cells: Ba/F3 (murine pro-B cells), retroviral transduction with pBabe-Puro based vectors
# How it was run: as §1
compound,measurement,setting,value
C=CC(=O)N1CCC(Oc2cc3c(Nc4ccc(Cl)c(Cl)c4F)ncnc3cc2OC)CC1 [Poziotinib],Response of Cells Comprising PACC EGFR Mutations to Second-Generation TKIs,EGFR L747S,0.01641
same,Response of Cells Comprising T790M-like-R EGFR Mutations to Second-Generation TKIs,EGFR L718Q T790M,6.487
same,Response of Cells Comprising Ex20ins EGFR Mutations to Poziotinib,EGFR S768dupSVD V769M,0.07874
same,Response of Cells Comprising PACC EGFR Mutations to Second-Generation TKIs,EGFR R776H,0.01644
same,Response of Cells Comprising Classical-Like EGFR Mutations to Second-Generation TKIs,EGFR S811F,0.2983
same,Response of Cells Comprising PACC EGFR Mutations to Second-Generation TKIs,EGFR G719A,0.02575
same,Response of Cells Comprising Classical-Like EGFR Mutations to Second-Generation TKIs,EGFR L833V,0.004716
same,Response of Cells Comprising PACC EGFR Mutations to Second-Generation TKIs,EGFR S768I,4.858
same,Response of Cells Comprising T790M-like-S EGFR Mutations to Second-Generation TKIs,EGFR G719A T790M,0.4851
same,Response of Cells Comprising T790M-like-R EGFR Mutations to Second-Generation TKIs,EGFR Ex19del T790M C797S,1862
same,Response of Cells Comprising Classical-Like EGFR Mutations to Second-Generation TKIs,EGFR L861R,0.01648
same,Response of Cells Comprising T790M-like-S EGFR Mutations to Second-Generation TKIs,[1],0.8493
same,Response of Cells Comprising T790M-like-R EGFR Mutations to Second-Generation TKIs,EGFR L858R/T790M/L718Q,70.12
same,Response of Cells Comprising T790M-like-R EGFR Mutations to Second-Generation TKIs,EGFR L858R T790M L718V,33.63
same,Response of Cells Comprising PACC EGFR Mutations to Second-Generation TKIs,EGFR Ex19del L718V,0.003363
